Measurements: publication PMC3524758, “Development and evaluation of a novel radioiodinated vesamicol analog as a sigma receptor imaging agent” (EJNMMI Research, 2012)
Read-outs that look alike come from different tables or passages of the source.

Tests used:
[1] = molecular target: T1, sigma-1 receptor (Rattus norvegicus, UniProt Q9R0C9); test: Sigma-1 receptor competitive binding assay ((+)-[3H]pentazocine, rat cerebral membranes)
T1 construct: from tissue; host or cells: rat brain without cerebellum (male Sprague-Dawley rats)
Protocol: (§1) Animal experimental protocols were approved by the Committee on Animal Experimentation of Kanazawa University. Experiments with animals were conducted in accordance with the Guidelines for the Care and Use of Laboratory Animals of Kanazawa University. The animals were housed with free access to food and water at 23°C with a 12-h alternating light/dark schedule. The rat brain and liver membranes for binding experiments were prepared from rat brains without cerebellum and rat liver in male Sprague–Dawley rats (200 g, Japan SLC, Inc., Hamamatsu, Japan), respectively, using a method described previously.
A sigma-1 receptor binding assay was performed using the following method. […] The incubated samples were quickly diluted with 5 mL of ice-cold Tris–HCl (pH 7.8) buffer followed by rapid filtration through Whatman Grade GF/B glass fiber filters (GE Healthcare UK Ltd., Amersham, UK) presoaked in 0.5% polyethylenimine using a cell harvester (Brandel, Gaithersburg, MD, USA). Filters were washed three times with 5 mL of ice-cold buffer. […] Radioactivity retained on the filters was measured with a liquid scintillation counter (LSC-5100; Aloka, Tokyo, Japan).

[2] = molecular target: T2, sigma-2 receptor (Rattus norvegicus, UniProt Q5U3Y7); test: Sigma-2 receptor competitive binding assay ([3H]DTG, rat liver membranes, (+)-pentazocine mask)
T2 construct: from tissue; host or cells: rat liver (male Sprague-Dawley rats)
T2 sequence (Q5U3Y7 1-176): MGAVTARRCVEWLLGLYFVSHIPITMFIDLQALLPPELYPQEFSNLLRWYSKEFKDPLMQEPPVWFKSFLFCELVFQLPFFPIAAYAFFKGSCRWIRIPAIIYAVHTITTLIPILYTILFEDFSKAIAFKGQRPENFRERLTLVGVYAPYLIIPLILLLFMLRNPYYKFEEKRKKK
Protocol: as §1
A sigma-2 receptor binding assay was performed using the following method. […] The incubated samples were treated in the same manner as described for the sigma-1 receptor binding assays.

[3] = system: sigma receptors; test: Blocking studies with excess sigma ligand in DU-145 tumor-bearing mice; format: in vivo; conditions: 10 μmol/kg i.v. co-injection, 1-h post-injection
Protocol: At 1-h post-injection, the mice were killed, and biodistribution experiments were conducted as described above.

[4] = Biodistribution in DU-145 tumor-bearing mice; format: in vivo; conditions: i.v., mean (SD)
Protocol: (+)-^131I]pIV was prepared using a method described previously. To produce tumors, approximately 5 × 10^6 of the prepared DU-145 cells was injected subcutaneously into the right dorsum of 4-week-old male BALB/c nude mice (15 to 19 g, Japan SLC, Inc.). Biodistribution experiments were performed at approximately 14- to 21-day post-inoculation, i.e., when tumors reached a palpable size. Groups of four mice were intravenously administered with 100 μL of a mixed solution of (+)-^125I]IV-OH (37 kBq) and (+)-^131I]pIV (37 kBq). At 10-min, 1-, 3-, and 24-h post-injections, the mice were killed. Tissues of interest were removed and weighed, and radioactivity counts were determined with an auto well gamma counter and corrected for background radiation. A window from 16 to 71 keV was used for measuring ^125I and one from 300 to 433 keV for ^131I. The crossover of ^125I activity into the ^131I channel was negligible. Correlation factors to eliminate any crossover of ^131I activity into ^125I were determined by measuring the ^131I standard in both windows.

[5] = rat cerebral membranes, 5-nM (+)-[3H]pentazocine, Ki from IC50, means (SEM) of three or four experiments
[6] = rat liver membranes, 5-nM [3H]DTG, 1-μM (+)-pentazocine mask, Ki from IC50, means (SEM) of three or four experiments

T1 sequence (Q9R0C9 whole entry): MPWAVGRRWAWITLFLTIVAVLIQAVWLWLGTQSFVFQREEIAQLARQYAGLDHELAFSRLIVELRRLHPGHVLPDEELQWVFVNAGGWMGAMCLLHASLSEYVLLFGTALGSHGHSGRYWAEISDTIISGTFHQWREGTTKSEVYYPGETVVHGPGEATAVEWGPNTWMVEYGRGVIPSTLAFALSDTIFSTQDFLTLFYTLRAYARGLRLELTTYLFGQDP

Question: Which results are given for Oc1ccc(C2CCN(C3CCCCC3O)CC2)cc1 (single isomer, unassigned; (+)) [(+)-Ves-OH]?
Answer: Ki [1, 5]: 179 nM; Ki [2, 6]: 97.2 nM

Question: For Oc1ccc(C2CCN(C3CCCC[C@H]3O)CC2)cc1I (single isomer, unassigned; (+)) [(+)-IV-OH, (+)-4-[1-(2-hydroxycyclohexyl)piperidine-4-yl]-2-iodophenol], which Ki [1] is on record?
Answer: 22.8 nM

Question: What about the “selectivity for sigma-1 subtype over sigma-2” value ([1]; in vitro binding assay) of the same compound?
Answer: approximately 6.4 fold

Question: And the Ki [2]?
Answer: 147 nM

Question: For (+)-Vesamicol [reference compound], which Ki [2, 6] is on record?
Answer: 159 nM

Question: With COc1ccc(CCN2CCN(CCCc3ccccc3)CC2)cc1OC [SA4503] as the compound, how does the “effect of co-injected ligand on brain to blood uptake ratio of (+)-[^125I]IV-OH” value [3] read?
Answer: significant decrease

Question: And the “effect of co-injected ligand on liver uptake of (+)-[^125I]IV-OH” value [3]?
Answer: did not inhibit

Question: And the “effect of co-injected ligand on pancreas to blood uptake ratio of (+)-[^125I]IV-OH” value [3]?
Answer: significant decrease

Question: And the “effect of co-injected ligand on tumor to blood uptake ratio of (+)-[^125I]IV-OH” value [3]?
Answer: significant decrease

Question: With OC1CCCCC1N1CCC(c2ccc([131I])cc2)CC1 (single isomer, unassigned; (+)) [(+)-[^131I]pIV, reference compound] as the compound, how does the “Biodistribution of radioactivity, Blood” value ([4]; 10 min post-injection) read?
Answer: 0.45 (0.03) percent injected dose per gram tissue

Question: What about the “Biodistribution of radioactivity, Blood” value ([4]; 1 h post-injection) of the same compound?
Answer: 0.28 (0.02) percent injected dose per gram tissue

Question: What about the “Biodistribution of radioactivity, Blood” value ([4]; 3 h post-injection) of the same compound?
Answer: 0.17 (0.01) percent injected dose per gram tissue

Question: What about the “Biodistribution of radioactivity, Brain” value ([4]; 10 min post-injection) of the same compound?
Answer: 6.02 (0.74) percent injected dose per gram tissue

Question: And the “Biodistribution of radioactivity, Brain” value ([4]; 1 h post-injection)?
Answer: 6.47 (0.73) percent injected dose per gram tissue

Question: And the “Biodistribution of radioactivity, Brain” value ([4]; 3 h post-injection)?
Answer: 4.12 (0.30) percent injected dose per gram tissue

Question: What about the “Biodistribution of radioactivity, Brain” value ([4]; 24 h post-injection) of the same compound?
Answer: 2.22 (0.10) percent injected dose per gram tissue

Question: And the “Biodistribution of radioactivity, Heart” value ([4]; 10 min post-injection)?
Answer: 8.66 (0.81) percent injected dose per gram tissue

Question: And the “Biodistribution of radioactivity, Heart” value ([4]; 1 h post-injection)?
Answer: 5.55 (0.70) percent injected dose per gram tissue

Question: What about the “Biodistribution of radioactivity, Heart” value ([4]; 3 h post-injection) of the same compound?
Answer: 2.11 (0.37) percent injected dose per gram tissue

Question: And the “Biodistribution of radioactivity, Heart” value ([4]; 24 h post-injection)?
Answer: 0.96 (0.07) percent injected dose per gram tissue

Question: What about the “Biodistribution of radioactivity, Intestine” value (“Biodistribution … Intestine” below) ([4]; 10 min post-injection) of the same compound?
Answer: 4.31 (0.78) percent injected dose per gram tissue

Question: And the “Biodistribution … Intestine” value ([4]; 1 h post-injection)?
Answer: 5.14 (0.12) percent injected dose per gram tissue

Question: And the “Biodistribution … Intestine” value ([4]; 3 h post-injection)?
Answer: 3.20 (0.13) percent injected dose per gram tissue

Question: What about the “Biodistribution … Intestine” value ([4]; 24 h post-injection) of the same compound?
Answer: 2.59 (0.24) percent injected dose per gram tissue

Question: What about the “Biodistribution of radioactivity, Kidney” value ([4]; 10 min post-injection) of the same compound?
Answer: 18.47 (1.59) percent injected dose per gram tissue

Question: What about the “Biodistribution of radioactivity, Kidney” value ([4]; 1 h post-injection) of the same compound?
Answer: 11.72 (1.90) percent injected dose per gram tissue

Question: What about the “Biodistribution of radioactivity, Kidney” value ([4]; 3 h post-injection) of the same compound?
Answer: 7.37 (0.89) percent injected dose per gram tissue

Question: And the “Biodistribution of radioactivity, Kidney” value ([4]; 24 h post-injection)?
Answer: 6.15 (0.30) percent injected dose per gram tissue

Question: And the “Biodistribution of radioactivity, Liver” value ([4]; 10 min post-injection)?
Answer: 9.83 (0.39) percent injected dose per gram tissue

Question: What about the “Biodistribution of radioactivity, Liver” value ([4]; 1 h post-injection) of the same compound?
Answer: 13.31 (1.25) percent injected dose per gram tissue

Question: What about the “Biodistribution of radioactivity, Liver” value ([4]; 3 h post-injection) of the same compound?
Answer: 13.05 (0.46) percent injected dose per gram tissue

Question: And the “Biodistribution of radioactivity, Liver” value ([4]; 24 h post-injection)?
Answer: 10.28 (0.59) percent injected dose per gram tissue

Question: And the “Biodistribution of radioactivity, Lung” value ([4]; 10 min post-injection)?
Answer: 26.10 (3.39) percent injected dose per gram tissue

Question: What about the “Biodistribution of radioactivity, Lung” value ([4]; 1 h post-injection) of the same compound?
Answer: 13.13 (3.28) percent injected dose per gram tissue

Question: And the “Biodistribution of radioactivity, Lung” value ([4]; 3 h post-injection)?
Answer: 6.59 (0.56) percent injected dose per gram tissue

Question: And the “Biodistribution of radioactivity, Lung” value ([4]; 24 h post-injection)?
Answer: 3.01 (0.46) percent injected dose per gram tissue

Question: What about the “Biodistribution of radioactivity, Muscle” value ([4]; 10 min post-injection) of the same compound?
Answer: 2.03 (0.53) percent injected dose per gram tissue

Question: And the “Biodistribution of radioactivity, Muscle” value ([4]; 1 h post-injection)?
Answer: 1.62 (0.22) percent injected dose per gram tissue

Question: What about the “Biodistribution of radioactivity, Muscle” value ([4]; 3 h post-injection) of the same compound?
Answer: 0.72 (0.29) percent injected dose per gram tissue

Question: What about the “Biodistribution of radioactivity, Muscle” value ([4]; 24 h post-injection) of the same compound?
Answer: 0.42 (0.03) percent injected dose per gram tissue

Question: And the “Biodistribution of radioactivity, Pancreas” value (from here on “Biodistribution … Pancreas”) ([4]; 10 min post-injection)?
Answer: 16.58 (1.82) percent injected dose per gram tissue

Question: What about the “Biodistribution … Pancreas” value ([4]; 1 h post-injection) of the same compound?
Answer: 21.94 (2.50) percent injected dose per gram tissue

Question: What about the “Biodistribution … Pancreas” value ([4]; 3 h post-injection) of the same compound?
Answer: 27.35 (0.24) percent injected dose per gram tissue

Question: And the “Biodistribution … Pancreas” value ([4]; 24 h post-injection)?
Answer: 27.36 (0.70) percent injected dose per gram tissue

Question: And the “Biodistribution of radioactivity, Spleen” value ([4]; 10 min post-injection)?
Answer: 8.12 (1.09) percent injected dose per gram tissue

Question: What about the “Biodistribution of radioactivity, Spleen” value ([4]; 1 h post-injection) of the same compound?
Answer: 8.99 (1.00) percent injected dose per gram tissue

Question: What about the “Biodistribution of radioactivity, Spleen” value ([4]; 3 h post-injection) of the same compound?
Answer: 4.04 (0.30) percent injected dose per gram tissue

Question: What about the “Biodistribution of radioactivity, Spleen” value ([4]; 24 h post-injection) of the same compound?
Answer: 2.52 (0.23) percent injected dose per gram tissue

Question: And the “Biodistribution of radioactivity, Stomach” value (from here on “Biodistribution … Stomach”) ([4]; 10 min post-injection)?
Answer: 1.07 (0.32) percent injected dose

Question: What about the “Biodistribution … Stomach” value ([4]; 1 h post-injection) of the same compound?
Answer: 0.73 (0.26) percent injected dose

Question: What about the “Biodistribution … Stomach” value ([4]; 3 h post-injection) of the same compound?
Answer: 0.62 (0.19) percent injected dose

Question: What about the “Biodistribution … Stomach” value ([4]; 24 h post-injection) of the same compound?
Answer: 0.49 (0.06) percent injected dose

Question: And the “Biodistribution of radioactivity, Tumor” value ([4]; 10 min post-injection)?
Answer: 7.20 (0.40) percent injected dose per gram tissue

Question: And the “Biodistribution of radioactivity, Tumor” value ([4]; 1 h post-injection)?
Answer: 5.79 (0.37) percent injected dose per gram tissue

Question: And the “Biodistribution of radioactivity, Tumor” value ([4]; 3 h post-injection)?
Answer: 6.46 (3.42) percent injected dose per gram tissue

Question: And the “Biodistribution of radioactivity, Tumor” value ([4]; 24 h post-injection)?
Answer: 6.81 (2.60) percent injected dose per gram tissue

Question: For Oc1ccc(C2CCN(C3CCCCC3O)CC2)cc1I (single isomer, unassigned; (-)) [(−)-IV-OH, (−)-enantiomer of 4-[1-(2-hydroxycyclohexyl)piperidine-4-yl]-2-iodophenol], which Ki [1, 5] is on record?
Answer: 45.5 nM

Question: What about the Ki [2, 6] of the same compound?
Answer: 166 nM
